Patent US20220378802A1, “TREATMENT OF ALCOHOLIC HEPATITIS” (Durect Corporation, priority 2019, published 2022)
“Also recorded” adds a separate entry of the source. Like-named read-outs stand apart in the source and are kept apart here.

Legend:
[1] = system: patients with alcoholic hepatitis; test: Safety and tolerability in Phase 2a trial; assay type: in vivo, human; conditions: all AH patients
Protocol: All patients received IV infused 25HC3S (at 30, 90, or 150 mg) on Day 1 and Day 4 (if still hospitalized), and were followed for 28-days. The final enrollment was 19 patients comprised of: 8 patients (4 moderate and 4 severe) dosed at 30 mg, 7 patients (3 moderate and 4 severe) dosed at 90 mg, and 4 patients (4 severe) dosed at 150 mg. • Study Drug A 25HC3S sodium salt solution contained: • 30 mg/mL 25HC3S sodium salt; • 240 mg/mL hydroxypropyl-beta-cyclodextrin; and • 50 mmole phosphate buffer • The 25HC3S sodium salt solution was diluted in 100 mL 5% dextrose or 0.9% sodium chloride infusion solution: • Dose 1: 30 mg of 25HC3S sodium salt in 100 mL 5% dextrose or 0.9% sodium chloride • Dose 2: 90 mg of 25HC3S sodium salt in 100 mL 5% dextrose or 0.9% sodium chloride • Dose 3: 150 mg of 25HC3S sodium salt in 100 mL 5% dextrose or 0.9% sodium chloride • 25HC3S sodium salt was administered by slow intravenous infusion over 2 hrs (50 mL/h) until the entire dose is given at Day 1 and Day 4. If a patient met the hospital discharge criteria prior to the second dose, the patient received only one dose instead of two doses. • Study Procedure The study was conducted in two parts. Part A included patients with MELD scores of 11-20 (moderate AH patients), and Part B included patients with MELD of scores 21-30. The doses of 25HC3S sodium salt administered were 30 mg and 90 mg for Part A and 30 mg, 90 mg and 150 mg for Part B, with 4 patients per dose group per Part (except for only 3 patients in the 90 mg cohort of Part A). All patients were followed to Day 28. • The study started in 4 moderate AH patients (Part A) at 30 mg dose level. After completing the dosing, a Dose Escalation Committee (DEC) reviewed safety, tolerability and pharmacokinetic (PK) data from all 4 patients and determined that it was safe to move forward to dose 4 severe AH patients (Part B) at the same dose level, 30 mg, as well as escalating the dose level to 90 mg in moderate patients (Part A). […]

[2] = Pharmacokinetics of 25HC3S in alcoholic hepatitis patients (Phase 2a, IV infusion); assay type: in vivo, human; conditions: for PK parameters, moderate versus severe AH groups: comparison at the same dose; for half-life / clearance / Tmax / AUC(0-inf) / Cmax: human, plasma
Protocol: All patients received IV infused 25HC3S (at 30, 90, or 150 mg) on Day 1 and Day 4 (if still hospitalized), and were followed for 28-days. The final enrollment was 19 patients comprised of: 8 patients (4 moderate and 4 severe) dosed at 30 mg, 7 patients (3 moderate and 4 severe) dosed at 90 mg, and 4 patients (4 severe) dosed at 150 mg. • Study Drug A 25HC3S sodium salt solution contained: • 30 mg/mL 25HC3S sodium salt; • 240 mg/mL hydroxypropyl-beta-cyclodextrin; and • 50 mmole phosphate buffer • The 25HC3S sodium salt solution was diluted in 100 mL 5% dextrose or 0.9% sodium chloride infusion solution: • Dose 1: 30 mg of 25HC3S sodium salt in 100 mL 5% dextrose or 0.9% sodium chloride • Dose 2: 90 mg of 25HC3S sodium salt in 100 mL 5% dextrose or 0.9% sodium chloride • Dose 3: 150 mg of 25HC3S sodium salt in 100 mL 5% dextrose or 0.9% sodium chloride • 25HC3S sodium salt was administered by slow intravenous infusion over 2 hrs (50 mL/h) until the entire dose is given at Day 1 and Day 4. If a patient met the hospital discharge criteria prior to the second dose, the patient received only one dose instead of two doses. • Study Procedure The study was conducted in two parts. Part A included patients with MELD scores of 11-20 (moderate AH patients), and Part B included patients with MELD of scores 21-30. The doses of 25HC3S sodium salt administered were 30 mg and 90 mg for Part A and 30 mg, 90 mg and 150 mg for Part B, with 4 patients per dose group per Part (except for only 3 patients in the 90 mg cohort of Part A). All patients were followed to Day 28. • The study started in 4 moderate AH patients (Part A) at 30 mg dose level. After completing the dosing, a Dose Escalation Committee (DEC) reviewed safety, tolerability and pharmacokinetic (PK) data from all 4 patients and determined that it was safe to move forward to dose 4 severe AH patients (Part B) at the same dose level, 30 mg, as well as escalating the dose level to 90 mg in moderate patients (Part A). The same dose escalation procedure was then conducted in Part B until all 4 patients received 150 mg doses. • A flow diagram of the study is depicted in FIG. 2. Each dose cohort enrolled up to 4 subjects. Study subjects received up to 2 doses of 25HC3S sodium salt. The first dose was administered on Day 1 and, if still hospitalized, the second dose was administered on Day 4. A pharmacokinetic (PK) sample was collected at: Time 0 (pre-dose), 1 hour post-dose initiation, 2 hours (end of infusion), 3 hours post-dose initiation, 4 hours post-dose initiation, 8 hours post-dose initiation, 12 hours post-dose initiation, 24-hours post-dose initiation and 50 hours post-dose initiation. • Evaluation: Assessment of Pharmacodynamic (PD) Signals: • Change in Lille score, MELD score, biochemistry (such as bilirubin) • Method and Timing • Lille score was calculated at Day 7 • MELD score was calculated at Screening, Day 1 (pre-dose), Day 7 and Day 28 • Biochemistry and all safety lab parameters were collected at Screening, Day 1 and Day 4 at pre-dose, Day 1 and Day 4 at 12 hrs after dose completion/end of infusion, Day 2, Day 7, Day 28, and if hospitalized on Days 3, 4, 5, and 6. • Assessment of Safety Signals: • Safety was determined based on clinical and laboratory monitoring. • Assessment of PK: • Plasma concentration data of 25HC3S from each patient were used to calculate relevant PK parameters determined using a standard linear/log-trapezoidal rule non-compartmental method with an appropriate PK data analysis program. • The time points for PK sample collection were (after Dose 1 only): 0 (pre-dose), 1 hr post-dose initiation, 2 hrs (end of infusion), 3, 4, 8, 12, 24 hrs post-dose

[3] = AH vs healthy subjects, 150 mg, ↑
[4] = AH vs healthy subjects, 150 mg, ↓
[5] = iv, 30 mg, Moderate AH, cohort 1A, 30 mg IV infusion, N=3
[6] = iv, 30 mg, Severe AH, cohort 1B, 30 mg IV infusion, N=4
[7] = iv, 90 mg, Moderate AH, cohort 2A, 90 mg IV infusion, N=3
[8] = iv, 90 mg, Severe AH, cohort 2B, 90 mg IV infusion, N=4
[9] = iv, 150 mg, Severe AH, cohort 3B, 150 mg IV infusion, N=4
[10] = same dose level, single dose of 150 mg

C[C@H](CCCC(C)(C)O)[C@H]1CC[C@H]2[C@@H]3CC=C4C[C@@H](OS(=O)(=O)O)CC[C@]4(C)[C@H]3CC[C@]12C [25HC3S, 5-cholesten-3,25-diol, 3-sulfate]
safety / tolerability ([1]; 30, 90, 150 mg): safe and well tolerated
serious adverse events ([1]; 30, 90, 150 mg): no drug-related serious adverse events; also recorded: no treatment emergent serious adverse events; also recorded: no serious adverse effects related to 25HC3S
discontinuations, early withdrawal or termination due to adverse effects [1]: no discontinuations, early withdrawal or termination
drug exposure (AUC and Cmax) versus dose ([2]; AH patients, 30, 90, 150 mg): dose proportional
Time to maximum drug concentrations (Tmax) ([2]; AH patients, 2 hour IV infusion): at the end of 2 hour infusion
Fold Change in PK: AUCinf [2, 3]: ↑ ~5×
Fold Change in PK: Cmax [2, 3]: ↑ 2×
Fold Change in PK: T½ [2, 3]: ↑ 2×
Fold Change in PK: CL [2, 4]: ↓ 0.25×
Fold Change in PK: V [2, 4]: ↓ 0.5×
V ([2]; Moderate AH, cohort 1A, 30 mg IV infusion, N=3): 24.8 (1.6) L
V ([2]; Moderate AH, cohort 2A, 90 mg IV infusion, N=3): 25.8 (10.5) L
V ([2]; Severe AH, cohort 1B, 30 mg IV infusion, N=4): 26.1 (4.9) L
V ([2]; Severe AH, cohort 2B, 90 mg IV infusion, N=4): 35.3 (10.8) L
V ([2]; Severe AH, cohort 3B, 150 mg IV infusion, N=4): 27.8 (5.9) L
PK parameters, moderate versus severe AH groups [2]: uninfluenced by the severity of the disease; also recorded: similar
PK parameters, moderate versus severe AH groups ([2]; listed as 25HC3S sodium): similar
systemic clearance, fold lower in AH patients compared to healthy subjects ([2]; for a given dose): about 5 fold
decrease of clearance in AH patients compared to healthy subjects ([2]; healthy subjects from an earlier study): 80%
half-life ([2]; intravenous, AH patients, range over groups, read-out: half-life (t1/2)): 4 to 6 h
clearance ([2]; intravenous, AH patients, read-out: Mean clearance): 83.3 to 117 mL/min
Tmax ([2]; iv, 30 mg, Moderate AH, cohort 1A, 30 mg IV infusion over 2 h, after Dose 1, N=3): 2.2 h
AUC(0-inf) [2, 5]: 6540 ng·h/mL
Cmax [2, 5]: 1280 ng/mL
clearance ([2]; iv, 30 mg, Moderate AH, cohort 1A, 30 mg IV infusion, N=3, read-out: CL (converted)): 98.3 mL/min
half-life ([2]; iv, 30 mg, Moderate AH, cohort 1A, 30 mg IV infusion, N=3, read-out: T½ (converted)): 3.7 h
AUC(0-inf) [2, 6]: 7720 ng·h/mL
Cmax [2, 6]: 1340 ng/mL
Tmax [2, 6]: 1.8 h
clearance ([2]; iv, 30 mg, Severe AH, cohort 1B, 30 mg IV infusion, N=4, read-out: CL (converted)): 68.3 mL/min
half-life ([2]; iv, 30 mg, Severe AH, cohort 1B, 30 mg IV infusion, N=4, read-out: T½ (converted)): 1.8 h
AUC(0-inf) [2, 7]: 14300 ng·h/mL
Cmax [2, 7]: 3630 ng/mL
Tmax [2, 7]: 2 h
clearance ([2]; iv, 90 mg, Moderate AH, cohort 2A, 90 mg IV infusion, N=3, read-out: CL (converted)): 110 mL/min
half-life ([2]; iv, 90 mg, Moderate AH, cohort 2A, 90 mg IV infusion, N=3, read-out: T½ (converted)): 2.7 h
AUC(0-inf) [2, 8]: 20400 ng·h/mL
Cmax [2, 8]: 3290 ng/mL
Tmax [2, 8]: 2.3 h
clearance ([2]; iv, 90 mg, Severe AH, cohort 2B, 90 mg IV infusion, N=4, read-out: CL (converted)): 91.7 mL/min
half-life ([2]; iv, 90 mg, Severe AH, cohort 2B, 90 mg IV infusion, N=4, read-out: T½ (converted)): 5.1 h
AUC(0-inf) [2, 9]: 27100 ng·h/mL
Cmax [2, 9]: 6820 ng/mL
Tmax [2, 9]: 2.1 h
clearance ([2]; iv, 150 mg, Severe AH, cohort 3B, 150 mg IV infusion, N=4, read-out: CL (converted)): 96.7 mL/min
half-life ([2]; iv, 150 mg, Severe AH, cohort 3B, 150 mg IV infusion, N=4, read-out: T½ (converted)): 3.4 h
increase in AUC in AH patients compared to healthy subjects [2, 10]: about 5 fold
increase in Cmax in AH patients compared to healthy subjects [2, 10]: 2 fold
